According to ChEMBL document CHEMBL1201862, “PubChem BioAssay data set” (2004):
The source made the active and inactive calls.

Legend:
[1] = target: T1, Oxysterols receptor LXR-beta (Homo sapiens, UniProt P55055); assay type: functional, cell-based;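 further: Cell-based luminescence dose-response assay of agonist activity at LXR, run as a confirmatory counterscreen to a daf-12 agonist screen; HEK293 cells with Gal4-LXR fusion and GAL4-driven luciferase reporter; agonist potency from rising luciferase signal of a Gal4-LXR reporter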
T1 sequence (P55055 whole entry): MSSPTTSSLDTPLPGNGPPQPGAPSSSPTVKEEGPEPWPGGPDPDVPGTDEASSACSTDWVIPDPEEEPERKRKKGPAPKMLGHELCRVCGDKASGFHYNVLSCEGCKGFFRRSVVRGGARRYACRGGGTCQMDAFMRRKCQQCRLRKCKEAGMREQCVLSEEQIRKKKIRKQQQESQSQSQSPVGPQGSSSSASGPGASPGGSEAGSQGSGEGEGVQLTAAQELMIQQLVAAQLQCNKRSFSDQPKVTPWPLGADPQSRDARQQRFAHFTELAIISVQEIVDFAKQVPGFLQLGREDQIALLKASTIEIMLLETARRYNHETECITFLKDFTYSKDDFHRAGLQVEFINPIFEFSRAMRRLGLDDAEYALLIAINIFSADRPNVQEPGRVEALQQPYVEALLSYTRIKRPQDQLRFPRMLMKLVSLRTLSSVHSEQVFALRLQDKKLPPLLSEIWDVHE

[2] = cells
[3] = target: Kallikrein-7 (Homo sapiens, UniProt P49862); assay: Fluorescence Intensity-based biochemical primary high throughput dose response assay to identify activators of kallikrein-7 (K7) zymogen.
Kallikrein-7, sequence (P49862 whole entry): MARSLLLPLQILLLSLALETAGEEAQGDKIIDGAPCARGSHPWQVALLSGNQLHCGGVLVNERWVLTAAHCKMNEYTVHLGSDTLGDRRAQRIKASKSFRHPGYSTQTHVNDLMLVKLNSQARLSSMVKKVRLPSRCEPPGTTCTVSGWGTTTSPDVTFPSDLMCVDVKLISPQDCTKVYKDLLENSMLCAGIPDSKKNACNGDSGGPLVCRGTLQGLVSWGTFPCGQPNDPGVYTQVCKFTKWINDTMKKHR

[4] = viability loss in HeLa cells – cytotoxicity control for MgcRacGAP inhibitor project, dose response (AID 624300); assay type: functional
[5] = target: T2, Rac GTPase-activating protein 1 (Homo sapiens, UniProt Q9H0H5); assay: blockers of MgcRacGAP-driven Rac1 GTP hydrolysis – biochemical, ADP Hunter fluorescence, primary and confirmatory, confirmation (AID 624330); assay type: functional
T2 sequence (Q9H0H5 whole entry): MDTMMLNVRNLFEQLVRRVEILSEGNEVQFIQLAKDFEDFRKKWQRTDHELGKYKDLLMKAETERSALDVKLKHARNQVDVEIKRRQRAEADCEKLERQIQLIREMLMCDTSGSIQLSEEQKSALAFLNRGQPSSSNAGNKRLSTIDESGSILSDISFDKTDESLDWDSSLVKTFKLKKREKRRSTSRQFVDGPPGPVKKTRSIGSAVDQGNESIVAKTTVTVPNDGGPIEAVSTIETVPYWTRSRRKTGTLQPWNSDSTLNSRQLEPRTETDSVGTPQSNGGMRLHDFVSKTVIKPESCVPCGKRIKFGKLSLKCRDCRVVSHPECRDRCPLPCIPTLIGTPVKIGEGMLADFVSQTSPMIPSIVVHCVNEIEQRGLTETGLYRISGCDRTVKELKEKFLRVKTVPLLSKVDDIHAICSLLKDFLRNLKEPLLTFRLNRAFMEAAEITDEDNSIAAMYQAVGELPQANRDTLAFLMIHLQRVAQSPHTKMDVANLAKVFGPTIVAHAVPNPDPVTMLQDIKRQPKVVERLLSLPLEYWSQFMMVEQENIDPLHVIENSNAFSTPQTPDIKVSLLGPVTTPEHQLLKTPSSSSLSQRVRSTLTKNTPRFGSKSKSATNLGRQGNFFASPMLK

[6] = target: Glucose-6-phosphate 1-dehydrogenase (Homo sapiens, UniProt P11413); assay: inhibition of Homo sapiens G6PD, dose series – biochemical, fluorescence, selectivity assay for P. falciparum G6PD inhibitor project, dose response (AID 504792); assay type: functional
Glucose-6-phosphate 1-dehydrogenase, sequence (P11413 whole entry): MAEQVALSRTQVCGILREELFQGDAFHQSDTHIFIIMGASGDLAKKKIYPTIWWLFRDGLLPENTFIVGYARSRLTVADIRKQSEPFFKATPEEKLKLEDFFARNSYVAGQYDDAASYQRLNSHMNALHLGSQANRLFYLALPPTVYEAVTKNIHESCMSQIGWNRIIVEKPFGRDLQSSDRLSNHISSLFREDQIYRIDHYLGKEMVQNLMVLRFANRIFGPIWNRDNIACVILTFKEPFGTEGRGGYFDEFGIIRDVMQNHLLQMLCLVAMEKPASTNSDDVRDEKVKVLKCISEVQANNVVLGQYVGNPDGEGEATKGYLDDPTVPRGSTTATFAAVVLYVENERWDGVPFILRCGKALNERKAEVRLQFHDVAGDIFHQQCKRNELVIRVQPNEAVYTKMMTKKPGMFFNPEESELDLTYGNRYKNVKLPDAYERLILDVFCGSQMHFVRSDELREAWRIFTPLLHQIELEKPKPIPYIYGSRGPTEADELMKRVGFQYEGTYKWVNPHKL

[7] = cells; assay type: functional, cell-based; settings: HEK-CNG
[8] = target: T3, Galanin receptor type 3 (Homo sapiens, UniProt O60755); assay: Fluorescence-based cell-based primary high throughput dose response assay to identify antagonists of the Galanin Receptor 3 (GalR3).; assay type: functional
T3 sequence (O60755 whole entry): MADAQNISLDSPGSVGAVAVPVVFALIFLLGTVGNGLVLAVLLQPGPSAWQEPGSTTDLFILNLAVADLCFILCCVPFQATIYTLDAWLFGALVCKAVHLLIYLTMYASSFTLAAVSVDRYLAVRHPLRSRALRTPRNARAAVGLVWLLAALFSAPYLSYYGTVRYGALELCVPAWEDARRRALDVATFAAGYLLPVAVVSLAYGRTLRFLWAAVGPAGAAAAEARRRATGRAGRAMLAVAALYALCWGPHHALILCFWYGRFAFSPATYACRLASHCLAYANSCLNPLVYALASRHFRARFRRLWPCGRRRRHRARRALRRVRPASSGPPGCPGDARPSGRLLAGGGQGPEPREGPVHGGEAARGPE

[9] = target: Ephrin type-A receptor 4 (Mus musculus, UniProt Q03137); assay: EphA4 ligand-binding antagonists – biochemical, colorimetric, mouse EphA4, primary screen (AID 689); assay type: functional
Ephrin type-A receptor 4, sequence (Q03137 whole entry): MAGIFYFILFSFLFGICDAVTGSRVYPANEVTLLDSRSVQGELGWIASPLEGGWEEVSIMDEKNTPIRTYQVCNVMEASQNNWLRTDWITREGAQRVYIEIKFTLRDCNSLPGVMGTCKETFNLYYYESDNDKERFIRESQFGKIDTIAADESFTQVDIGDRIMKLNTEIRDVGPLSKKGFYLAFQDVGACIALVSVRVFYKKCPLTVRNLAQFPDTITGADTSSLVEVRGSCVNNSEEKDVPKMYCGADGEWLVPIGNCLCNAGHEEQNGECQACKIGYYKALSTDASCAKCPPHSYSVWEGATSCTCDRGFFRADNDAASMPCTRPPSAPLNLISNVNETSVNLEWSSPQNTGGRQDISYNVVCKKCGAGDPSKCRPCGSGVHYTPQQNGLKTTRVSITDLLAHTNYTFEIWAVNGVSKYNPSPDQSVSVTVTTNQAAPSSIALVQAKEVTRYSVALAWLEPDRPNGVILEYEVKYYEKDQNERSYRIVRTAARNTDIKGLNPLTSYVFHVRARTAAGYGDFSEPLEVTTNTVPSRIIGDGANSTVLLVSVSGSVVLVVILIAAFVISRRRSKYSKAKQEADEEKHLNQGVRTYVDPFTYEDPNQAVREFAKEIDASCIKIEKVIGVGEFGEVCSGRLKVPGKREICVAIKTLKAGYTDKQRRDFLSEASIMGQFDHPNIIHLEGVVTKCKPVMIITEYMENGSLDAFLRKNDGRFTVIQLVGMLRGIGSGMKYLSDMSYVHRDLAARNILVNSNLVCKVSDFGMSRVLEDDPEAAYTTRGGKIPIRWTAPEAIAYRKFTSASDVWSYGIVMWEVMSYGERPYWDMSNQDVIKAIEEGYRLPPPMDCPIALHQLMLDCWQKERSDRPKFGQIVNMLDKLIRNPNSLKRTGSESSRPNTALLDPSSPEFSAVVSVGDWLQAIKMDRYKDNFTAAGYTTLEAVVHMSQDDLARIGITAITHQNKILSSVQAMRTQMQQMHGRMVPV

[10] = tested on: H9c2; assay: cells; assay type: functional, cell-based; settings: Rattus norvegicus, H9c2, Myocardium;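 further: confirmatory concentration-response retest of ultra-high-throughput screening hits for modulation of myocardial damage; cell death induced by hydrogen peroxide oxidative stress; compound pretreatment for 60 min then peroxide exposure for 2 h; potency is for protecting the cells against peroxide damage rather than for killing them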
[11] = Luminescence Cell-Based Dose Confirmation HTS to Identify Inhibitors of Platelet Dense Granule Release. [Related pubchem assays: 1663 (Primary HTS), 1678 (Summary of Project)]; assay type: functional
[12] = target: Luciferin 4-monooxygenase (Photinus pyralis, UniProt P08659); assay: inhibition of purified Photinus pyralis luciferase – biochemical, luminescence, dose response (AID 1891)
Luciferin 4-monooxygenase, sequence (P08659 whole entry, the tested form may be a part): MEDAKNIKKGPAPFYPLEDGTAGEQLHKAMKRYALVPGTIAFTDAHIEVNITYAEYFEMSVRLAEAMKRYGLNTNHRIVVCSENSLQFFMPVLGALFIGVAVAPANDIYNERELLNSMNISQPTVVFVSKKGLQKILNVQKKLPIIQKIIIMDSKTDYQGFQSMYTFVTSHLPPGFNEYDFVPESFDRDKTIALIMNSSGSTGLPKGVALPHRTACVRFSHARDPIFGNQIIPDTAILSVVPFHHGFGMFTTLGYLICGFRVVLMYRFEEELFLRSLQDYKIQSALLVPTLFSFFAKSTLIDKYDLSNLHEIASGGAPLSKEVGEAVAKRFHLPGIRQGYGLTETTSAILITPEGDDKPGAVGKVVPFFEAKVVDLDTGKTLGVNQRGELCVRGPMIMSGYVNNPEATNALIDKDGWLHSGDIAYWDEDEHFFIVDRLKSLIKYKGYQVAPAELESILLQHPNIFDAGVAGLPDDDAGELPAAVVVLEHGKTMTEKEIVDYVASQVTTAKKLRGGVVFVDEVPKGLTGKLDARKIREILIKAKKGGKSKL

[13] = target: T4, Carboxy-terminal domain RNA polymerase II polypeptide A small phosphatase 1 (Homo sapiens, UniProt Q9GZU7); assay: CTDSP1 inhibitors, concentration-response, biochemical, absorbance readout, ultra-high-throughput screen actives (AID 540297); assay type: functional
T4 sequence (Q9GZU7 whole entry): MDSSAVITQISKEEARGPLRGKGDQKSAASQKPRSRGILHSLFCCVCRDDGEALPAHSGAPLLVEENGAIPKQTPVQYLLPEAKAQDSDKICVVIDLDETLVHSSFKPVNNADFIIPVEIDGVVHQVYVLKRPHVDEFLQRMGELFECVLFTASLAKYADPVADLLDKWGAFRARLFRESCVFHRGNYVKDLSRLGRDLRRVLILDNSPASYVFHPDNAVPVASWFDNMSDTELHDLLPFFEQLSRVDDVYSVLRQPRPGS

[14] = target: T5, Caspase-6 (Homo sapiens, UniProt P55212); assay: inhibition of CASP6 peptide cleavage – biochemical, VEID-R110 fluorescence, cherry-pick, dose response (AID 720632)
T5 sequence (P55212 whole entry): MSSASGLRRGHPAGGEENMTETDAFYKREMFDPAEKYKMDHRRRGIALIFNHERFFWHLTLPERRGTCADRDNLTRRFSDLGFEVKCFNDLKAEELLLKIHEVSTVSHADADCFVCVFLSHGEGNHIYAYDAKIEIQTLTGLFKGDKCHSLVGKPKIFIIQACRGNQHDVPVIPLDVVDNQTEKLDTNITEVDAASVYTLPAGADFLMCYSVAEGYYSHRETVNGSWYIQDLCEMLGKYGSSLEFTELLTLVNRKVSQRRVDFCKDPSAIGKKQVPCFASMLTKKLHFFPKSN

[15] = IC50 of Artemis nuclease activity blockers – biochemical, fluorescence intensity, dose response (AID 720701); assay type: functional;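 further: Artemis endonuclease enzyme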
[16] = target: T6, Long-chain-fatty-acid--AMP ligase FadD28 (Mycobacterium tuberculosis, UniProt P9WQ59); assay: Fluorescence polarization aasay to screen for inhibitors that compete for the binding of FadD28 to a bisubstrate Measured in Biochemical System Using Plate Reader - 2147-01_Inhibitor_Dose_CherryPick_Activity.; assay type: functional, Mycobacterium tuberculosis H37Rv
T6 sequence (P9WQ59 whole entry): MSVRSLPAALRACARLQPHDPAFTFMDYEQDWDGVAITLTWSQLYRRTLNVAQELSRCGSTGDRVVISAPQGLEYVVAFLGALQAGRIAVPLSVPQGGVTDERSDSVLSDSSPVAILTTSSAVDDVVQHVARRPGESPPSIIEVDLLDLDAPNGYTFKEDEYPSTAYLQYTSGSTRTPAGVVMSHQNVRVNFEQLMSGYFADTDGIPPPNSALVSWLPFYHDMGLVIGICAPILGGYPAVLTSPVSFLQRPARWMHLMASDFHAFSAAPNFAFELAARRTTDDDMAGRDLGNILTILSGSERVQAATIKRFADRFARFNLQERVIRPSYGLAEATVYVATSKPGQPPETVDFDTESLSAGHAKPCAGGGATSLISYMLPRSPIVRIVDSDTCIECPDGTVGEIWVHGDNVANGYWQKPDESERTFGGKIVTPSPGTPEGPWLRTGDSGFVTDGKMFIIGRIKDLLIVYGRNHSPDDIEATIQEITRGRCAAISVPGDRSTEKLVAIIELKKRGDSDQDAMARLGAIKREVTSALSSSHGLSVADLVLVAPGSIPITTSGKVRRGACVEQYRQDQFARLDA

[17] = target: T7, Probable nicotinate-nucleotide adenylyltransferase (Staphylococcus aureus (strain N315), UniProt P65502); assay type: functional, Staphylococcus aureus subsp. aureus N315;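 on IC50 Mean: confirmatory dose-response retesting of NadD inhibitor hits first found in an ultra-high-throughput screen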
T7 sequence (P65502 whole entry): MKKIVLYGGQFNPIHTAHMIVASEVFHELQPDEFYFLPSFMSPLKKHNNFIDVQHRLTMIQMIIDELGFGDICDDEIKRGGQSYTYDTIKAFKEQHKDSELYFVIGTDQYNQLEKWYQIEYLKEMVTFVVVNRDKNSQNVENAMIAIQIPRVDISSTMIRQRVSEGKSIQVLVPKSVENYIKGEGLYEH

[18] = target: T7, Probable nicotinate-nucleotide adenylyltransferase; assay type: functional, Staphylococcus aureus subsp. aureus N315; settings: read-out: IC50_Mean
[19] = toxicity toward immortalized ovarian surface epithelium – cell-based, plate reader, dry powder samples, cytotoxicity control for PAX8 inhibitor project, dose response (AID 743045); assay type: functional
[20] = target: Paired box protein Pax-8 (Homo sapiens, UniProt Q06710); assay: PAX8 transcriptional activity inhibition in RMG-I – RMG-I cells, luciferase, cherry-pick, dose response (AID 687027); assay type: functional, cell-based;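 further: luciferase reporter driven by Pax8 target thyroperoxidase promoter measured by SteadyGlo luminescence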
Paired box protein Pax-8, sequence (Q06710 whole entry): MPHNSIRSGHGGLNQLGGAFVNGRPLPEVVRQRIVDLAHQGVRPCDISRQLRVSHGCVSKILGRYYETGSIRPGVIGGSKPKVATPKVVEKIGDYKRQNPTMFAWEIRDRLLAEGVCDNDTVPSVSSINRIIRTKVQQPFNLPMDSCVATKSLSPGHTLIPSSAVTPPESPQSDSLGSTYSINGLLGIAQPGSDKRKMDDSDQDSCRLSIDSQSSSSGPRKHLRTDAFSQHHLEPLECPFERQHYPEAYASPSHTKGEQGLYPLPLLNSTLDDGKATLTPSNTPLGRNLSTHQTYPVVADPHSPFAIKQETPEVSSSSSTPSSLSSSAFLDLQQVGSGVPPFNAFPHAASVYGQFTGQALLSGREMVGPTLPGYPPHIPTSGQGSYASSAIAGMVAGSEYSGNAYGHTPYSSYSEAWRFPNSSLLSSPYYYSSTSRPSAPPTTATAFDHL

[21] = OVCAR8 cell viability loss – plate reader, dry powder samples, PAX8 project, dose response (AID 743197); assay type: functional, cell-based; settings: OVCAR-8
[22] = OVCAR-3 cell viability loss – plate reader, dry powder samples, PAX8 inhibitor project, dose response (AID 743044); assay type: functional, cell-based
[23] = IGROV1 cell killing – plate reader, dry powder samples, PAX8 inhibitor project, dose response (AID 743043); assay type: functional, cell-based; settings: IGROV-1
[24] = tested on: Streptococcus; assay: GAS UMAA2166 growth inhibition – luminescence, BacTiterGlo, counter-screen for streptokinase expression inhibitor project, dose response (AID 1915); assay type: functional, organism-based;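 further: potency for reduction of bacterial viability or growth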
[25] = target: T8, Low molecular weight phosphotyrosine protein phosphatase (Homo sapiens, UniProt P24666); assay type: functional; settings: read-out: IC50_Mean;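 further: Dose-response confirmation assay measuring inhibition of LMPTP enzyme activity by fluorescence intensity read-out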
T8 sequence (P24666 whole entry): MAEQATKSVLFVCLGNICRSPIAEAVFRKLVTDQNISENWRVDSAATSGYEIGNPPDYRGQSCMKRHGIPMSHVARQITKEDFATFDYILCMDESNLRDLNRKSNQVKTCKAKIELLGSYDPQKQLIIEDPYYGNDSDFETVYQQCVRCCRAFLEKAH

[26] = tested on: Streptococcus sp. 'group A'; assay: Streptococcus pyogenes SK(-)GAS viability under kanamycin – luminescence, BacTiterGlo, confirmation, counter-screen for streptokinase expression inhibitor project, dose response (AID 1900); assay type: functional, organism-based

CC1CCCCN1C(=O)CSc1nnc(-c2ccccc2O)o1 (stereo not given)
EC50 [1]: > 67.5 µM (inactive) | EC50 [2]: > 67.5 µM (inactive)

CCC(NC(=O)CCc1c(C)c2cc3c(C)c(C)oc3cc2oc1=O)C(=O)N[C@@H](Cc1ccccc1)C(=O)O (stereo not given in full)
EC50 [3]: > 69.5 µM (inactive)

COc1cccc(CNc2ccc3[nH]c(O)nc3c2)c1OCc1ccccc1Cl
CC50 [4]: 100 µM (active) | IC50 [5]: 69 µM (active) | IC50 [6]: > 80 µM (inactive)

O=[N+]([O-])c1[nH]c2nc(O)nc-2cc1Cl
EC50 [7]: > 29.9 µM (inactive) | IC50 [8]: 16.7 µM (inactive)

Cc1ccc(S(=O)(=O)/C(C#N)=C/c2c(N3CCOCC3)nc3ccccn3c2=O)cc1
IC50 [9]: > 100 µM (not active)

N#CC(c1nc2ccccc2nc1N1CCCC1)S(=O)(=O)c1cccs1 (stereo not given)
IC50 [10]: > 79 µM (inactive) | IC50 [9]: > 100 µM (not active)

Cc1ccc(N=Nc2cc(C)ccc2N)cc1
EC50 [1]: > 67.5 µM (inactive) | EC50 [11]: 3.15 µM (active) | EC50 [12]: 0.149 µM (active) | EC50 [2]: > 67.5 µM (inactive)

Cc1ccc(-c2nc(O)c3sccc3n2)cc1
EC50 [1]: > 67.5 µM (inactive) | EC50 [2]: > 67.5 µM (inactive)

CC1CCC2(CC1)NC(=O)N(CC(=O)Nc1sc3c(c1C(N)=O)CCC3)C2=O (stereo not given)
IC50 [13]: 3.44 µM (active) | AC50 [14]: 10.9 µM (active)

CCSC1=N/C(=C\c2ccc(-c3ccccc3[N+](=O)[O-])o2)C(=O)S1
IC50 [9]: > 100 µM (not active) | IC50 [15]: 0.967 µM (active)

Cc1ccc(NC(=O)CNc2ccccc2N2CCCC2=O)cc1S(=O)(=O)N1CCCCC1
AC50 [16]: 48.3 µM (active)

Oc1ccc(C[C@H]2CNC(=S)N2CC2CCCN2C[C@H](Cc2ccc(O)cc2)N2C[C@H](Cc3ccccc3)N(CC3CCCCC3)C2=S)cc1 (stereo not given in full)
IC50 [17]: 16.3 µM (active) | IC50 [18]: 22.1 µM (active)

Nc1c(Br)cc(Br)c2c1nc(O)c1ccccc12
AC50 [14]: 18.1 µM (active)

C[C@@H]1CN([C@H](C)CO)C(=O)c2cc(NC(=O)Nc3ccc(C(F)(F)F)cc3)ccc2O[C@@H](C)CCCCO[C@H]1CN(C)C(=O)c1ccccc1
AC50 [19]: 37.5 µM (active) | AC50 [20]: 12.1 µM (active) | AC50 [21]: 50.7 µM (active) | AC50 [22]: 33.2 µM (active) | AC50 [23]: 35.6 µM (active)

CC(C)(C)c1cc(/C=N/NC(=O)Cc2nc3ccccc3[nH]2)cc(C(C)(C)C)c1O
IC50 [15]: > 20 µM (inactive)

O=C(O)c1ccc(N/N=C/c2cc(Br)cs2)cc1
AC50 [16]: 32 µM (inactive)

CC[C@H]1OC(=O)[C@H](C)[C@@H](O[C@H]2C[C@@](C)(OC)[C@@H](O)[C@H](C)O2)[C@H](C)[C@@H](O[C@@H]2O[C@H](C)C[C@H](N(C)C)[C@H]2O)[C@](C)(O)C[C@@H](C)C(=O)[C@H](C)[C@@H](O)[C@]1(C)O [ERYTHROMYCIN]
EC50 [24]: < 0.06 µM (active) | IC50 [25]: 47.1 µM (inactive) | EC50 [26]: < 0.06 µM (active)
